Experimental data taken from ChEMBL document CHEMBL1201862, “PubChem BioAssay data set” (2004).
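Briefly, cells in 96-well plates were exposed to five compound concentrations for 48 h, and endpoints were estimated by linear interpolation. At the GI50, growth is halved.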 The source made the active and inactive calls. Rule as the data show it: active = GI50 up to about 1.1 µM and inactive = higher.

What was measured:
Test in all cases: NCI anticancer screen, dose series, 48 h
IGROV-1 = tested on: IGROV-1
OVCAR-5 = tested on: OVCAR-5
SNB-78 = tested on: SNB-78
HT-29 = tested on: HT-29
KM-20L2 = tested on: KM-20L2
Malme-3M = tested on: Malme-3M
COLO 205 = tested on: COLO 205
SK-MEL-2 = tested on: SK-MEL-2
TK-10 = tested on: TK-10
ACHN = tested on: ACHN
A498 = tested on: A498
A549 = tested on: A549
M14 = tested on: M14
SK-MEL-28 = tested on: SK-MEL-28
HOP-92 = tested on: HOP-92
SNB-19 = tested on: SNB-19
SF-295 = tested on: SF-295
EKVX = tested on: EKVX
SW-620 = tested on: SW-620
NCI-H522 = tested on: NCI-H522
OVCAR-3 = tested on: OVCAR-3
UO-31 = tested on: UO-31
MOLT-4 = tested on: MOLT-4
DLD-1 = tested on: DLD-1
LOX IMVI = tested on: LOX IMVI
HOP-62 = tested on: HOP-62
HL-60 = tested on: HL-60
LXFL 529 = tested on: LXFL 529
OVCAR-4 = tested on: OVCAR-4
SF-539 = tested on: SF-539
DMS-273 = tested on: DMS-273
NCI-H23 = tested on: NCI-H23
M19-MEL = tested on: M19-MEL
U-251 = tested on: U-251
HCT-116 = tested on: HCT-116
DMS-114 = tested on: DMS-114
NCI-H226 = tested on: NCI-H226
SK-MEL-5 = tested on: SK-MEL-5
CCRF-CEM = tested on: CCRF-CEM
RXF 393 = tested on: RXF 393
K562 = tested on: K562
UACC-62 = tested on: UACC-62
CAKI-1 = tested on: CAKI-1
RPMI-8226 = tested on: RPMI-8226
SK-OV-3 = tested on: SK-OV-3
NCI-H460 = tested on: NCI-H460
HCT-15 = tested on: HCT-15
SNB-75 = tested on: SNB-75
786-0 = tested on: 786-0
OVCAR-8 = tested on: OVCAR-8
XF498 = tested on: XF498
KM12 = tested on: KM12
SN12C = tested on: SN12C
UACC-257 = tested on: UACC-257
HCC 2998 = tested on: HCC 2998
HOP-18 = tested on: HOP-18
SF-268 = tested on: SF-268
SR = tested on: SR

For CN(N=O)C(=O)N(N)CCCCC(NC(=O)OCc1ccccc1)C(=O)OCc1ccccc1 (stereo not given), the GI50 (IGROV-1) was 49.2 µM (inactive), the GI50 (OVCAR-5) was > 100 µM (inactive) and the GI50 (SNB-78) was 31.9 µM (inactive). The GI50 (HT-29) was 79.6 µM (inactive), the GI50 (KM-20L2) was > 100 µM (inactive) and the GI50 (Malme-3M) was 40.1 µM (inactive). For the same compound, the GI50 (COLO 205) was 18.5 µM (inactive), the GI50 (SK-MEL-2) was 91.6 µM (inactive) and the GI50 (TK-10) was > 100 µM (inactive). For the same compound, the GI50 (ACHN) was 19 µM (inactive), the GI50 (A498) was 69.7 µM (inactive) and the GI50 (A549) was 81.8 µM (inactive). The GI50 (M14) was 23 µM (inactive), the GI50 (SK-MEL-28) was > 100 µM (inactive) and the GI50 (HOP-92) was 10.7 µM (inactive). For the same compound, the GI50 (SNB-19) was > 100 µM (inactive), the GI50 (SF-295) was 75.9 µM (inactive) and the GI50 (EKVX) was > 100 µM (inactive). For the same compound, the GI50 (SW-620) was 65.9 µM (inactive), the GI50 (NCI-H522) was 11.7 µM (inactive) and the GI50 (OVCAR-3) was 23.1 µM (inactive). For the same compound, the GI50 (UO-31) was 18.7 µM (inactive), the GI50 (MOLT-4) was 18.9 µM (inactive) and the GI50 (DLD-1) was 58.7 µM (inactive). The GI50 (LOX IMVI) was 17.9 µM (inactive), the GI50 (HOP-62) was 9.75 µM (inactive) and the GI50 (HL-60) was 5.25 µM (inactive). For the same compound, the GI50 (LXFL 529) was 53.2 µM (inactive), the GI50 (OVCAR-4) was 33.7 µM (inactive) and the GI50 (SF-539) was 16 µM (inactive). For the same compound, the GI50 (DMS-273) was 32.2 µM (inactive), the GI50 (NCI-H23) was 14.6 µM (inactive) and the GI50 (M19-MEL) was 36.1 µM (inactive). The GI50 (U-251) was 38.9 µM (inactive), the GI50 (HCT-116) was 29.8 µM (inactive) and the GI50 (DMS-114) was 44 µM (inactive). The GI50 (NCI-H226) was 22.2 µM (inactive), the GI50 (SK-MEL-5) was 44.7 µM (inactive) and the GI50 (CCRF-CEM) was 14.3 µM (inactive). The GI50 (RXF 393) was 12.9 µM (inactive), the GI50 (K562) was 45.4 µM (inactive) and the GI50 (UACC-62) was 18.5 µM (inactive). The GI50 (CAKI-1) was 25.6 µM (inactive), the GI50 (RPMI-8226) was > 100 µM (inactive) and the GI50 (SK-OV-3) was > 100 µM (inactive). The GI50 (NCI-H460) was 32.5 µM (inactive), the GI50 (HCT-15) was 90.4 µM and the GI50 (SNB-75) was 20.6 µM (inactive). For the same compound, the GI50 (786-0) was 18.5 µM (inactive), the GI50 (OVCAR-8) was 33.7 µM (inactive) and the GI50 (XF498) was 8.41 µM (inactive). For the same compound, the GI50 (KM12) was 38.8 µM (inactive), the GI50 (SN12C) was 18.6 µM (inactive) and the GI50 (UACC-257) was 18.7 µM (inactive). The GI50 (HCC 2998) was 18.2 µM (inactive).

Cc1ccc2c(CC(=O)O)cc(=O)oc2c1 was tested, and the GI50 (IGROV-1) was > 100 µM (inactive), the GI50 (HOP-18) was > 100 µM (inactive) and the GI50 (OVCAR-5) was > 100 µM (inactive). For the same compound, the GI50 (HT-29) was > 100 µM (inactive), the GI50 (KM-20L2) was > 100 µM (inactive) and the GI50 (Malme-3M) was > 100 µM (inactive). For the same compound, the GI50 (COLO 205) was > 100 µM (inactive), the GI50 (SK-MEL-2) was > 100 µM (inactive) and the GI50 (TK-10) was > 100 µM (inactive). For the same compound, the GI50 (ACHN) was > 100 µM (inactive), the GI50 (A498) was > 100 µM (inactive) and the GI50 (SF-268) was > 100 µM (inactive). For the same compound, the GI50 (A549) was > 100 µM (inactive), the GI50 (M14) was > 100 µM (inactive) and the GI50 (SK-MEL-28) was > 100 µM (inactive). For the same compound, the GI50 (HOP-92) was > 100 µM (inactive), the GI50 (SNB-19) was > 100 µM (inactive) and the GI50 (SF-295) was > 100 µM (inactive). For the same compound, the GI50 (EKVX) was > 100 µM (inactive), the GI50 (SW-620) was > 100 µM (inactive) and the GI50 (NCI-H522) was > 100 µM (inactive). The GI50 (OVCAR-3) was > 100 µM (inactive), the GI50 (MOLT-4) was > 100 µM (inactive) and the GI50 (DLD-1) was > 100 µM (inactive). For the same compound, the GI50 (LOX IMVI) was > 100 µM (inactive), the GI50 (HOP-62) was > 100 µM (inactive) and the GI50 (HL-60) was > 100 µM (inactive). The GI50 (LXFL 529) was > 100 µM (inactive), the GI50 (OVCAR-4) was > 100 µM (inactive) and the GI50 (SF-539) was > 100 µM (inactive). For the same compound, the GI50 (DMS-273) was 37.2 µM (inactive), the GI50 (NCI-H23) was > 100 µM (inactive) and the GI50 (M19-MEL) was > 100 µM (inactive). For the same compound, the GI50 (U-251) was > 100 µM (inactive), the GI50 (HCT-116) was > 100 µM (inactive) and the GI50 (DMS-114) was > 100 µM (inactive). The GI50 (NCI-H226) was > 100 µM (inactive), the GI50 (SK-MEL-5) was > 100 µM (inactive) and the GI50 (CCRF-CEM) was > 100 µM (inactive). For the same compound, the GI50 (RXF 393) was 3.72 µM (inactive), the GI50 (K562) was > 100 µM (inactive) and the GI50 (UACC-62) was > 100 µM (inactive). For the same compound, the GI50 (CAKI-1) was > 100 µM (inactive), the GI50 (RPMI-8226) was > 100 µM (inactive) and the GI50 (SK-OV-3) was > 100 µM (inactive). The GI50 (NCI-H460) was > 100 µM (inactive), the GI50 (HCT-15) was over 100 µM and the GI50 (SNB-75) was 44.9 µM (inactive). The GI50 (786-0) was > 100 µM (inactive), the GI50 (OVCAR-8) was > 100 µM (inactive) and the GI50 (XF498) was 2.86 µM (inactive). For the same compound, the GI50 (KM12) was > 100 µM (inactive), the GI50 (SN12C) was > 100 µM (inactive) and the GI50 (HCC 2998) was > 100 µM (inactive).

In the case of CC/C=C\C/C=C\C/C=C\CCCCCCCC(=O)OCC, the GI50 (IGROV-1) is reported as > 100 µM (inactive), the GI50 (HOP-18) is reported as > 100 µM (inactive) and the GI50 (OVCAR-5) is reported as > 100 µM (inactive). For the same compound, the GI50 (HT-29) was > 100 µM (inactive), the GI50 (KM-20L2) was > 100 µM (inactive) and the GI50 (Malme-3M) was > 100 µM (inactive). For the same compound, the GI50 (COLO 205) was > 100 µM (inactive), the GI50 (SK-MEL-2) was > 100 µM (inactive) and the GI50 (TK-10) was > 100 µM (inactive). The GI50 (ACHN) was > 100 µM (inactive), the GI50 (A498) was > 100 µM (inactive) and the GI50 (SF-268) was > 100 µM (inactive). For the same compound, the GI50 (A549) was > 100 µM (inactive), the GI50 (M14) was > 100 µM (inactive) and the GI50 (SR) was > 100 µM (inactive). The GI50 (SK-MEL-28) was > 100 µM (inactive), the GI50 (HOP-92) was > 100 µM (inactive) and the GI50 (SF-295) was > 100 µM (inactive). The GI50 (EKVX) was > 100 µM (inactive), the GI50 (SW-620) was > 100 µM (inactive) and the GI50 (OVCAR-3) was > 100 µM (inactive). For the same compound, the GI50 (UO-31) was > 100 µM (inactive), the GI50 (MOLT-4) was 87.1 µM (inactive) and the GI50 (DLD-1) was > 100 µM (inactive). The GI50 (LOX IMVI) was 42.6 µM (inactive), the GI50 (HOP-62) was > 100 µM (inactive) and the GI50 (HL-60) was > 100 µM (inactive). For the same compound, the GI50 (LXFL 529) was > 100 µM (inactive), the GI50 (OVCAR-4) was > 100 µM (inactive) and the GI50 (SF-539) was > 100 µM (inactive). The GI50 (NCI-H23) was > 100 µM (inactive), the GI50 (M19-MEL) was > 100 µM (inactive) and the GI50 (U-251) was > 100 µM (inactive). The GI50 (HCT-116) was > 100 µM (inactive), the GI50 (DMS-114) was > 100 µM (inactive) and the GI50 (NCI-H226) was > 100 µM (inactive). For the same compound, the GI50 (SK-MEL-5) was > 100 µM (inactive), the GI50 (CCRF-CEM) was > 100 µM (inactive) and the GI50 (K562) was > 100 µM (inactive). For the same compound, the GI50 (UACC-62) was > 100 µM (inactive), the GI50 (CAKI-1) was > 100 µM (inactive) and the GI50 (RPMI-8226) was 70.6 µM (inactive). For the same compound, the GI50 (SK-OV-3) was > 100 µM (inactive), the GI50 (SNB-75) was > 100 µM (inactive) and the GI50 (786-0) was > 100 µM (inactive). The GI50 (OVCAR-8) was > 100 µM (inactive), the GI50 (XF498) was 30.9 µM (inactive) and the GI50 (KM12) was > 100 µM (inactive). The GI50 (SN12C) was > 100 µM (inactive), the GI50 (UACC-257) was > 100 µM (inactive) and the GI50 (HCC 2998) was > 100 µM (inactive).
